# From patent publication US12458578B2, “Composition for inhibiting plaque formation” (SUNSTAR SUISSE SA, priority 2020, dated 2025)
# Tested on: Fusobacterium (Fusobacterium nucleatum subsp. nucleatum ATCC23726 and ATCC25586)
# Experiment: Study of sterilization effect of quaternary ammonium salt sterilizer liquids (in water) on Fusobacterium, viable count after 30 seconds
# Assay type: cell-based
# Settings: for sterilization effect on Fusobacterium (number of viable bacteria): component used singly as sterilizer liquid in water, 0.01-0.10%, 30 seconds contact
# Experimental: The alkylpyridinium chlorides and benzyl alkyl dimethyl ammonium chlorides shown below were dissolved in water such that each component had each concentration (0.01%, 0.02%, 0.03%, 0.04%, 0.05%, 0.07%, or 0.10%), and the resulting products were used as sterilizer liquids. In the sterilizer liquids, the components were used singly or in combination. The concentration (%) of an alkylpyridinium chloride in the sterilizer liquids is expressed as w/v %; however, since the solvent is water, and the concentrations are relatively low, the value is almost the same as the value expressed as mass % (w/w %) and can be approximated. • Octylpyridinium chloride (OPC): R=(CH2)7CH3 in the following formula • Dodecylpyridnium chloride (DPC): R=(CH2)11CH3 in the following formula • Cetylpyridinium chloride (CPC): R=(CH2)15CH3 in the following formula
# For test bacteria, the following two subspecies of Fusobacterium were used. • Bacteria 1: Fusobacterium nucleatum subsp. nucleatum ATCC23726 • Bacteria 2: Fusobacterium nucleatum subsp. nucleatum ATCC25586
# The test bacteria were individually inoculated into 10 ml of GAM bouillon medium (Nissui Pharmaceutical Co., Ltd.) and incubated anaerobically at 37° C. for 2 days. The resulting culture media were used as test bacteria liquids.
# The sterilizer liquids (200 μl) at different concentrations were each mixed with the test bacteria liquids (200 μl). Thirty seconds after the mixing, 100 μl of the mixture was collected, and 900 μl of drug inactivation PBS in which soy lecithin and Tween 80 were added to a final concentration of 0.07% and 0.5%, respectively, to phosphate-buffered saline (PBS) was added (the mixture was diluted 10-fold) to inactivate the sterilization properties of the sterilizers. Each mixture was serially diluted 10^1- to 10^7-fold with the drug inactivation PBS (serially diluted mixers).
# 100 μl each of the prepared serially diluted mixers was smeared on sheep blood agar media for CDC anaerobes (Becton, Dickinson and Company), cultured anaerobically at 37° C. for 3 days, and the number of viable bacteria was counted.
# FIGS. 1, 2, and 3 show the results. In the graphs of these figures, the vertical axis represents log (the number of viable bacteria) CFU/ml, with the detection limit of this value being 2.
# The concentrations of CPC, DPC, OPC, BKC12, BKC14, and BKC16 in these figures and the following figures represent the concentrations of these components prepared as sterilizer liquids.
compound,measurement,setting,value
"CCCCCCCCCCCC[N+](C)(C)Cc1ccccc1.[Cl-] [BKC12, Benzyl dodecyl dimethyl ammonium chloride]",sterilization effect on Fusobacterium (number of viable bacteria),,showed a sterilization effect on Fusobacterium even at a relatively low concentration
"CCCCCCCCCCCCCC[N+](C)(C)Cc1ccccc1.[Cl-] [BKC14, Benzyl tetradecyl dimethyl ammonium chloride]",sterilization effect on Fusobacterium (number of viable bacteria),,showed a sterilization effect on Fusobacterium even at a relatively low concentration
"CCCCCCCCCCCCCCCC[N+](C)(C)Cc1ccccc1.[Cl-] [BKC16, Benzyl hexadecyl dimethyl ammonium chloride]",sterilization effect on Fusobacterium (number of viable bacteria),,did not show a sterilization effect on Fusobacterium
"CCCCCCCCCCCCCCCC[n+]1ccccc1.[Cl-] [CPC, Cetylpyridinium chloride]",enhancement of the sterilization effect of BKC12 on Fusobacterium,CPC combined with BKC12 in the sterilizer liquid,enhanced the sterilization effect of BKC14 or BKC12 on Fusobacterium
same,enhancement of the sterilization effect of BKC14 on Fusobacterium,CPC combined with BKC14 in the sterilizer liquid,enhanced the sterilization effect of BKC14 or BKC12 on Fusobacterium
same,enhancement of the sterilization effect of DPC on Fusobacterium,CPC combined with DPC in the sterilizer liquid,enhanced the sterilization effect of DPC on Fusobacterium
same,enhancement of the sterilization effect of a quaternary ammonium salt having a C10 to C14 alkyl group on Fusobacterium,cetylpyridinium chloride combined with the quaternary ammonium salt,exhibits an effect of enhancing the sterilization effect of a quaternary ammonium salt having a C10 to C14 alkyl group on Fusobacterium
same,sterilization effect on Fusobacterium (number of viable bacteria),,did not show a sterilization effect on Fusobacterium
same,sterilization effect on Fusobacterium (number of viable bacteria),listed as Cetylpyridinium chloride,an efficient sterilization effect on Fusobacterium was not observed
same,sterilization effect on Fusobacterium (number of viable bacteria),listed as cetylpyridinium chloride,does not produce an efficient sterilization effect on Fusobacterium
"CCCCCCCCCCCC[n+]1ccccc1.[Cl-] [DPC, Dodecylpyridnium chloride]",sterilization effect on Fusobacterium (number of viable bacteria),,showed a sterilization effect on Fusobacterium even at a relatively low concentration
"CCCCCCCC[n+]1ccccc1.[Cl-] [OPC, Octylpyridinium chloride]",sterilization effect on Fusobacterium (number of viable bacteria),,did not show a sterilization effect on Fusobacterium
